The source of these data is patent US20260137687A1, “GTPase INHIBITORS AND USES THEREOF” (The Regents of The University of California, priority 2022, published 2026).

For one test, the target named is K-Ras Q61K (Homo sapiens, UniProt P01116, Q61K). The test is described as follows: Intact protein mass spectrometry, covalent modification. The test is classed as binding. To be noted: extended incubation at pH 7.5; 50 μM, 16 h. How it is done:
(§1) Purified K-Ras variants (4 μM final) were incubated with compounds at 50 or 100 μM (1% v/v DMSO final) in 20 mM HEPES pH 7.5, 150 mM NaCl, 1 mM MgCl2 in a total volume of 150 μL. After the noted time, the samples were analyzed by intact protein LC/MS using a Waters Xevo G2-XS system equipped with an Acquity UPLC BEH C4 1.7 μm column. The mobile phase was a linear gradient of 5-95% acetonitrile/water+0.05% formic acid. The spectra were processed using QuantLynx, giving the ion counts observed for the most abundant species. For assays conducted under an alternate pH, the HEPES buffer was replaced with one of the following buffers (maintaining 150 mM NaCl and 1 mM MgCl2): 20 mM MES pH 6 or 20 mM Tris pH 9.

The target of another test is K-Ras Q61L (Homo sapiens, UniProt P01116, Q61L). The test is described as above. Format: binding. Conditions: extended incubation at pH 7.5; 50 μM, 16 h. As for the experimental part:
as §1

The target of test [1] is T1, K-Ras(G12R)·GDP (Homo sapiens, UniProt P01116, G12R).
T1 construct: human K-Ras (G12R, aa 1-169); 6xHis tag + TEV cleavage site (N, cleaved yes); made in house; host or cells: E. coli BL21(DE3)
The test is described as above. The test is classed as binding. Conditions: for reaction rate with K-Ras(G12R)·GDP: 50 μM. How it is done: as §1

The next test concerns the target T2, wildtype (WT) K-Ras·GDP (Homo sapiens, UniProt P01116).
T2 construct: human K-Ras (wildtype, aa 1-169); 6xHis tag + TEV cleavage site (N, cleaved yes); made in house; host or cells: E. coli BL21(DE3)
Described as above. The test is classed as binding. To be noted: extended incubation at pH 7.5; 50 μM. As for the experimental part: as §1

Test [2] concerns the target T1, K-Ras(G12R)·GDP. Kind of test: Differential scanning fluorimetry. The test is classed as binding. As for the experimental part: The protein of interest was diluted with SEC Buffer [20 mM HEPES 7.5, 150 mM NaCl, 1 mM MgCl2] to 8 μM. This solution was dispensed into wells of a white 96-well PCR plate in triplicate (25 μL/well). Fluorescence was measured at 0.5° C. temperature intervals every 30 s from 25° C. to 95° C. on a Bio-Rad CFX96 qPCR system using the FRET setting. Each data set was normalized to the highest fluorescence and the normalized fluorescence reading was plotted against temperature in GraphPad Prism 8.0. Tm values were determined as the temperature(s) corresponding to the maximum(ma) of the first derivative of the curve.

Test [3] relates to BaF3/G12R cells (±IL-3), TCC-Pan-2 cells, and A375 cells. The test is described as follows: Cellular activity (phospho-ERK immunoblot, growth inhibition). The test is classed as cell-based. To be noted: at concentrations below 100 μM. As for the experimental part: When indicated, cells were treated with drugs at 40-60% confluency at a final DMSO concentration of 1%. At the end of treatment period, cells were placed on ice. Unless otherwise indicated, adherent cells were washed once with ice-cold PBS (1 mL), scraped with a spatula, and pelleted by centrifugation (500×g, 5 min). Suspension cells were pelleted by centrifugation (500×g, 5 min), washed with 1 mL ice-cold PBS, and pelleted again. Cells were lysed in RIPA buffer supplemented with protease and phosphatase inhibitors (cOmplete and phosSTOP, Roche) on ice for 10 min. Lysates were clarified by high-speed centrifugation (19,000×g, 10 min). Concentrations of lysates were determined with protein BCA assay (Thermo Fisher) and adjusted to 2 mg/mL with additional RIPA buffer (or Co-IP Lysis Buffer). Samples were mixed with 5×SDS Loading Dye and heated at 95° C. for 5 min.
Cells were seeded into 96-well white flat bottom plates (1,000 cells/well) (Corning) and incubated overnight. Cells were treated with the indicated compounds in a nine-point threefold dilution series (100 μL final volume) and incubated for 72 h. Cell viability was assessed using a commercial CellTiter-Glo (CTG) luminescence-based assay (Promega). […] Plates were placed on an orbital shaker for 30 min before recording luminescence using a Spark 20M (Tecan) plate reader.

Another test deals with K-Ras(G12R) (Homo sapiens, UniProt P01116, G12R). The test is described as follows: Sos- or EDTA-mediated nucleotide exchange assay. The test is classed as biochemical. Conditions: BODIPY-GDP exchanged for unlabeled GDP; compound-bound K-Ras(G12R). Also noted: human K-Ras (G12R, aa 1-169); 6xHis tag + TEV cleavage site (N, cleaved yes); made in house; host or cells: E. coli BL21(DE3). As for the experimental part: This assay was performed as previously reported (38-41) with slight modifications. BODIPY-GDP-loaded K-Ras proteins were prepared freshly as follows. To a 10 μM solution of K-Ras(G12R)·GDP or K-Ras(G12R)·GDP·3 in SEC Buffer (1 mL) was added sequentially BODIPY-GDP (5 mM, 40 μL, Thermo Fisher, final concentration 200 μM) and Na-EDTA pH 8.0 (0.5 M, 5 μL, final concentration 2.5 mM). The mixture was incubated at 23° C. for 1 h, and a solution of MgCl2 (1.0 M, 20 μL, […]) was added to the reaction mixture. The protein solution was run through a PD-10 column to remove the excess nucleotide following the manufacturer's protocol. Briefly, sample (˜1.0 mL) and excess buffer (1.5 mL) were loaded onto the column (equilibrated with NucEx Buffer), and desalted protein was eluted with NucEx Buffer (3.5 mL). Desalted protein was diluted 1:1 to a concentration of roughly 1.5 μM in NucEx Buffer. 12 μL of this solution (triplicate for each condition) was added to wells of a black 384-well low-volume assay plate (Corning 4514). […] The plate was immediately placed in a TECAN Spark 20M plate reader, and fluorescence for BODIPY (excitation 488 nm, emission 520 nm) was read every 30 s over 1 h. Fluorescence intensity was normalized to values at time 0 and plotted again time. […]

Turning to `CC(=O)C(O)(O)C(=O)N1[C@@H]2CC[C@H]1CN(c1nc(OCC34CCCN3CCC4)nc3c(F)c(-c4cccc5cccc(Cl)c45)ncc13)C2` [compound 3, 1-((1R,5S)-3-(7-(8-chloronaphthalen-1-yl)-8-fluoro-2-((tetrahydro-1H-pyrrolizin-7a(5H)-yl)methoxy)pyrido[4,3-d]pyrimidin-4-yl)-3,8-diazabicyclo[3.2.1]octan-8-yl)-2,2-dihydroxybutane-1,3-dione], the “covalent modification of K-Ras Q61K” value at K-Ras Q61K is reported as “did not modify”. At K-Ras Q61L, the “covalent modification of K-Ras Q61L” value was “did not modify”. Moreover, the “modification of surface exposed arginines of K-Ras” value at K-Ras(G12R)·GDP [1] was “not modified”. For the same compound, at K-Ras(G12R)·GDP [1] (100 μM compound, pH 7.5, 23° C., adducts +656 Da and +638 Da), the “covalent adduct formation with recombinant K-Ras(G12R)·GDP” value is “stoichiometric covalent adduct”. Further, the “reaction rate with K-Ras(G12R)·GDP” value on K-Ras(G12R)·GDP [1] (pH 6) is “greatly reduced rate”; at K-Ras(G12R)·GDP [1] (pH 8), “reached maximum”; on K-Ras(G12R)·GDP [1] (pH 9), “did not further increase”. Moreover, the “reversibility of adduct formation” value at K-Ras(G12R)·GDP [1] (purified adduct incubated at pH 7.5 for 7 days at 23° C.) is given as “irreversible”. In addition, on wildtype (WT) K-Ras·GDP, the “covalent modification of wildtype K-Ras·GDP” value is “did not modify”. Also, the “increase of melting temperature of K-Ras(G12R)·GDP·3 adduct vs unmodified K-Ras(G12R)·GDP” value at K-Ras(G12R)·GDP [2] worked out at 9.1 °C. Further, the cellular activity entry in test [3] was “did not show cellular activity”. In addition, at K-Ras(G12R), the Sos-mediated nucleotide exchange entry is given as “inhibited”. The “rate of EDTA-mediated nucleotide exchange” value on K-Ras(G12R) is “significantly reduced”.
